Assay results reported in patent publication US5233050A, “Antimigraine alkyl indole” (Merck & Co., Inc., priority 1992, dated 1993).

Legend:
[1] = tested on: 5-HT1D; assay: 5-HT1D radioligand binding assay (3H-5HT, crude pig striatal membranes); settings: for % inhibition of binding, 5-HT1D: mean of triplicates
Experimental: (§1) 5-HT1D radioligand binding assay was carried out according to Heuring and Peroutka (Heuring, R. E., and Peroutka, S. J., J. Neurosci., 7:894-903, 1987) with slight modifications as follows. Polypropylene tubes containing ^3 H-5HT (2 nM), cyanopindolol (100 nM), mesulergine (100 nM) and crude pig striatal membranes (10 mg wet weight per tube) in a final assay volume of 1 ml were used. All reagents and tissues were made up in […] Tris. HCl containing 0.1% ascorbate, 10 μM pargyline and 4 mM CaCl2 (pH 7.7 at room temperature). 5-HT (10 μM) was used to define non-specific binding. The incubation was initiated by the addition of membranes and carried out for 30 minutes at 37° C. Following incubation, membranes were rapidly filtered under vacuum through Whatmann GF/B filters using a Brandel Cell Harvester, followed by 2×3 ml washes with 50 mM Tris. HCl (pH 7.7 at room temperature). Bound radioactivity was determined by liquid scintillation spectrometry. 5-HT1A and 5-HT2 radioligand binding assays were performed according to Hall, et al., J. Neurochem., 44, 1685-1696, 1985 and Titeler, et al., Eur. J. Pharmacol., 117, 145-146, 1987, respectively.

[2] = biological target: T1, 5-HT2 (Rattus norvegicus, UniProt P14842); assay: 5-HT2 radioligand binding assay; settings: mean of triplicates
T1 construct: from tissue; host or cells: rat cortical membranes (inferred from the cited Titeler et al)
T1 sequence (P14842 whole entry): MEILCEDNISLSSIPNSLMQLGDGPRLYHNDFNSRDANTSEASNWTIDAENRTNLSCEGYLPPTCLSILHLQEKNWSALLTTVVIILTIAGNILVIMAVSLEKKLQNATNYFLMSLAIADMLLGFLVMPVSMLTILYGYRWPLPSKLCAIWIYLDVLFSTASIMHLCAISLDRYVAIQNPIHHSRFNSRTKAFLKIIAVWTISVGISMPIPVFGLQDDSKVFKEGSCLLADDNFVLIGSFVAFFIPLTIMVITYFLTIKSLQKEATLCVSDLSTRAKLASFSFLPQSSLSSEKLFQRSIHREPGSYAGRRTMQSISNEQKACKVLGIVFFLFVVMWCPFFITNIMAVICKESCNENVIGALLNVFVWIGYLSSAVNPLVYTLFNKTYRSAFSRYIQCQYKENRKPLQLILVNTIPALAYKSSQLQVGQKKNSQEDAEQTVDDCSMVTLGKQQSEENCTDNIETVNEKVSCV
Experimental: as §1

[3] = biological target: T2, 5-HT1A (Rattus norvegicus, UniProt P19327); assay: 5-HT1A radioligand binding assay
T2 construct: from tissue
T2 sequence (P19327 1-422): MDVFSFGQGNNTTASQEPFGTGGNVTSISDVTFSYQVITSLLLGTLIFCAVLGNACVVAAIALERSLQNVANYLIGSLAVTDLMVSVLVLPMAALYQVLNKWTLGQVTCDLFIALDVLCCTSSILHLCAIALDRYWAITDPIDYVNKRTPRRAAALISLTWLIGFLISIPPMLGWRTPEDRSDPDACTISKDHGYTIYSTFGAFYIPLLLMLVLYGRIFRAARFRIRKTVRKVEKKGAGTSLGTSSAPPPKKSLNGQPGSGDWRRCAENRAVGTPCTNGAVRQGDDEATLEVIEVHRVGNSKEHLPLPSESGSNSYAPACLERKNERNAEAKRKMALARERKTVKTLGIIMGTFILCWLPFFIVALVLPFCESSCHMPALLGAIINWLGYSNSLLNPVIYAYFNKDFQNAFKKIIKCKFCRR
Experimental: as §1

Row | SMILES | % inhibition of binding, 5-HT1D ([1]; 4.1 μM) [%] | % inhibition of binding, 5-HT1D ([1]; 41 μM) [%] | inhibition at 4.1 µM ([2]; 4.1 μM) [%] | inhibition at 41 µM ([2]; 41 μM) [%] | inhibition at 4.1 µM ([3]; 4.1 μM, mean of triplicates) [%] | inhibition at 41 µM ([3]; 41 μM, mean of triplicates) [%] | affinity for 5-HT1A relative to 5-HT1D and 5-HT2 ([3]; 5-HT1A versus 5-HT1D and 5-HT2) | rank order of affinity for these subtypes ([1]; 5-HT1D, 5-HT1A, 5-HT2, for comparison) | pIC50, 5-HT1D ([1]; for comparison) | IC50 [3] [nM]
1 | C=CC(C)(C)n1cc(CN(C)C)c2ccccc21 [Compound I, 1-(1,1-dimethylallyl)-3-dimethylaminomethylindole] | 44 | 81 | 42 | 86 | 20 | 62 | less affinity for 5-HT1A than for 5-HT1D and 5-HT2 receptor subtypes |  |  | 
2 | CNS(=O)(=O)Cc1ccc2[nH]cc(CCN(C)C)c2c1 [sumatriptan, reference compound] |  |  |  |  |  |  |  | 5-HT1D >5-HT1A >5-HT2 | 7.7 | 501
